The values below come from patent publication US20100311827A1, “Chlorogenic acid derivatives and their use as anti-fungal agents” (priority 2006, published 2010).

One series deals with brine shrimp. The format is in vivo. As to conditions: for % BL (brine shrimp lethality): at 100 μg/ml; for toxicity on brine shrimp compared to chlorogenic acid: comparison in words, from Table 2. The method, then:
The general in vitro toxicity of these compounds can be tested using the Brine Shrimp Lethality assay, as described in Mclaughlin, J. L. in Methods in Plant Biochemistry. Ed. K. Hostettmann, Academic Press, London, 1991; Vol. 6, pp. 1-32. Typically, candidate compounds are diluted in seawater to a suitable concentration and added to second instar larvae of Artemia salina. After a suitable period of time, for example 24 hours, the survivors are counted. In vitro acute toxicity testing of a compound of Formula I can also be performed using mammalian cell lines (see, for example, Ekwall, B., Ann. N.Y. Acad. Sci., (1983) 407:64-77). Selection of an appropriate cell line is dependent on the potential application of the candidate compound and can be readily determined by one skilled in the art.
To test the general toxicity of these compounds, Brine Shrimp Lethality assay was carried out according to Mclaughlin, J. L. in Methods in Plant Biochemistry. Ed. K. Hostettmann, Academic Press, London, 1991; Vol. 6, pp. 1-32. The compounds were tested at 100 μg/ml.

Series [1] deals with Candida albicans (ATCC90028). Description: Broth dilution anti-fungal susceptibility (NCCLS M27-A2), MIC. As to conditions: for MIC: Candida albicans, MICs read at 80% inhibition; for inhibitory activity against C. albicans compared to chlorogenic acid: comparison in words, from Table 3. The format is cell-based. As to the method:
(§1) The anti-fungal activity of the compounds according to the invention were evaluated against Candida albicans (ATCC90028), Cryptococcus neoformans (ATCC32045), and Aspergillus fumigatus (ATCC13073) according to NCCLS guidelines (NCCLS reference method for broth dilution anti-fungal susceptibility testing of yeasts; approved standard-second edition, M27-A2, National Committee for Clinical Laboratory Standards, Villanova, Pa. 2003; and NCCLS reference method for broth dilution anti-fungal susceptibility testing of filamentous fungi; approved standard, M38-A, National Committee for Clinical Laboratory Standards, Villanova, Pa. 2002).
(§2) The medium required for the evaluation of anti-fungal activity was prepared as follows. RPMI 1640 broth+MOPS, pH adjusted and filter sterilized. Sabouraud Dextrose Agar (SDA) plates were used for growing fungi.
(§3) All test or candidate compounds were prepared as 5 mg/ml stock solutions in DMSO and further diluted according to the NCCLS guidelines with sterile water or appropriate diluent. A working stock of 256 μg/ml was used to prepare 1:2 serial dilutions in 96-well plates.
(§4) The inoculums of fungi were prepared by making a direct sterile water suspension of colonies/spores from SDA plates. 0.1% Tween 20 was used for A. fumigatus for better dispersal of spores in suspension. For C. albicans and C. neoformans overnight cultures were used. A. fumigatus required longer incubation. Each fungal suspension was adjusted to read between 70 and 75% transmittance at 530 nm (0.5 McFarland Standard). These suspensions were further diluted 1/1000 in appropriate broth for inoculating the 96-well plates.
(§5) All plates were incubated at 35° C. for the following times: 18 hours to 24 hours for C. albicans, 48 hours for A. fumigatus, and 48 to 72 hours for C. neoformans.
Background: In broth dilution the organism is exposed to a series of concentrations in liquid medium.

Another series concerns Candida krusei ATCC6258. Description: Broth dilution anti-fungal susceptibility, MIC (as in Example 24). The class given is cell-based. As to conditions: for MIC: Pichia kudriavzevii, ATCC6258, Table 3 (Example 26), MICs read at 80% inhibition, 0.12 to 64 μg/ml, read-out: MIC C. krusei; for inhibitory activity against C. krusei compared to chlorogenic acid: comparison in words, from Table 3.

The test system of series [2] is Cryptococcus neoformans (ATCC32045). As to the kind of experiment: Broth dilution anti-fungal susceptibility (NCCLS M27-A2), MIC. The format is cell-based. As to conditions: Table 1, MICs read at 80% inhibition, 35° C., 48 to 72 hours, tested 0.12 to 64 μg/ml. As to the method:
as §1, §2, §3, §4, §5

In series [3] the test system is Aspergillus fumigatus (ATCC13073). Description: Broth dilution anti-fungal susceptibility of filamentous fungi (NCCLS M38-A), MIC. The class given is cell-based. The following applies: Table 1, MICs read at 80% inhibition, 35° C., 48 hours, tested 0.12 to 64 μg/ml. As to the method: as §1, §2, §3, §4, §5
The mark [4] stands for this setting: ATCC90028, Table 3 (Example 26, additional testing), 0.12 to 64 μg/ml, read-out: MIC C. albicans.
The mark [5] stands for this setting: ATCC90028, Table 1, 35° C., 18 to 24 hours, tested 0.12 to 64 μg/ml.

≈ marks a conversion by molar mass, not a printed value. Where two headings read alike, the source gives them in different places. Bounds are passed on as bounds.

Broadly, the MIC is the lowest concentration found to suppress growth.

Take `O=C(/C=C/c1ccc(O)c(O)c1)O[C@@H]1C[C@](O)(C(=O)O)C[C@@H](O)[C@H]1O` [Chlorogenic acid]: the “% BL (brine shrimp lethality)” value with brine shrimp stood at 100%. In addition, the minimal inhibitory concentration (MIC) (in series [1] (setting [4]); with Candida krusei ATCC6258) was over 64 µg/mL each time.

As to `CCCCCCCCOc1ccc(NC(=O)C(NC(=O)C2(O)CC(O)C(O)C(OC(=O)/C=C/c3ccc(O)c(O)c3)C2)C(C)O)cc1` (stereo not drawn) [Compound 12], the “% BL (brine shrimp lethality)” value with brine shrimp amounted to 12.5%. Also, in the series on brine shrimp, the “toxicity on brine shrimp compared to chlorogenic acid” value is reported as “less toxicity”. For the same molecule, the minimal inhibitory concentration (MIC) was 8 µg/mL (≈ 12.1 µM) in series [1] (setting [5]); 4 µg/mL (≈ 6.07 µM) in series [1] (setting [4]); 2 µg/mL (≈ 3.04 µM) in series [2]; over 64 µg/mL in series [3]; 2 µg/mL (≈ 3.04 µM) in the series with Candida krusei ATCC6258. Further, in series [1], the “inhibitory activity against C. albicans compared to chlorogenic acid” value is recorded as “more potent inhibitory activity”. Besides, the “inhibitory activity against C. krusei compared to chlorogenic acid” value in the series on Candida krusei ATCC6258 is listed as “more potent inhibitory activity”.

For `CCCCCCCCOc1ccc(NC(=O)C(NC(=O)C2(O)CC(O)C(O)C(OC(=O)/C=C/c3ccc(O)c(O)c3)C2)C(C)OC(C)(C)C)cc1` (stereo not drawn) [Compound 8], the “% BL (brine shrimp lethality)” value in the series with brine shrimp amounted to 50.0%. Moreover, the “toxicity on brine shrimp compared to chlorogenic acid” value with brine shrimp is “less toxicity”. Besides, the MIC in series [1] (setting [5]) is 2 µg/mL (≈ 2.8 µM); in series [1] (setting [4]), 4 µg/mL (≈ 5.6 µM); in series [2] it was 1 µg/mL (≈ 1.4 µM); in series [3] it was over 64 µg/mL; with Candida krusei ATCC6258, 2 µg/mL (≈ 2.8 µM). The “inhibitory activity against C. albicans compared to chlorogenic acid” value in series [1] is “more potent inhibitory activity”. Further, in the series with Candida krusei ATCC6258, the “inhibitory activity against C. krusei compared to chlorogenic acid” value is “more potent inhibitory activity”.
